For 31 compounds, EC50 results are on record in patent publication US10626095B2, “Cyanotriazole compounds” (OTSUKA PHARMACEUTICAL CO., LTD., priority 2013, dated 2020).

Structures are written as SMILES.

In the experiment the test system is NaCT-CHO (CHO cells stably expressing human NaCT). Put plainly: Assay of the citric acid cycle activation ([1,5-14C]-citric acid, diffusion of [14C]-CO2). The format is cell-based. The note with it: 1 hour incubation at 37° C. with [1,5-14C]-citric acid. From the text:
Assay of the Citric Acid Cycle Activation
(1) Construction of the Human NaCT Expression Vector pME-NaCT
The human NaCT (also called SLC13A5 or NAC2; GenBank accession No. NM_177550) cDNA was inserted into the EcoRI-NotI site of the mammalian expression vector pME18S (GenBank accession No. AB009864) and purified by Qiagen Plasmid Maxi Kit (Qiagen).
(2) Establishment of NaCT Stably Expressed CHO Cells
The pME-NaCT vector and the pcDNA™3.1 vector containing the neomycin resistance gene (Life Technologies) were co-transfected into CHO-K1 cells (ATCC) by Lipofectaimine 2000 reagent (Life Technologies). The next day the cells were subcultured in Nutrient Mixture F-12 Ham (Sigma-Aldrich) with 10% FBS (Biological Industries), and Geneticin (Life Technologies) was added (final concentration 350 μg/mL) in the following day. CHO cell clones stably expressing NaCT were given by neomycin resistant cell screening and limiting dilution method. Established cell lines (named NaCT-CHO) were also maintained in culture medium (Nutrient Mixture F-12 Ham) with 10% FBS and 350 μg/mL Geneticin. For control cells (named pME-CHO) preparation, the naive pME18S were also transfected instead of pME-NaCT into CHO-K1 cells.
(3) Assay of the Citric Acid Cycle Activation
NaCT-CHO and pME-CHO were plated at 20,000 cells/well into white CulturPlate™-96 (PerkinElmer) two days before the assay. Prior to assay incubation, the cultured plates were washed twice with washing buffer, 10 mM HEPES-Tris(pH7.4) containing 140 mM choline chloride, 2 mM KCl, 1 mM CaCl2, 1 mM MgCl2. The compounds to be tested were dissolved and diluted in DMSO (Wako Pure Chemical industries) to 1,000 times of a final concentration, and further diluted to two times as high as the final concentration in assay buffer, 10 mM HEPES-Tris(pH7.4) containing 140 mM NaCl, 2 mM KCl, 1 mM CaCl2, 1 mM MgCl2. The range of final concentrations was properly determined based on the test compounds activity. Each 25 μL compound solution was added to well and subsequently 25 μL radio-labeled substrate solution containing 0.4 mM (0.4 MBq/mL) [1,5-^14C]-citric acid (PerkinElmer) in the assay buffer was added. After 1 hour incubation at 37° C., the reaction mixture was discarded and washed three times with pre-chilled washing buffer and then 0.1 mL MicroScint 20 (PerkinElmer) was added to well. The plate was sealed with TopSeal-A (PerkinElmer) and the radioactivity was measured using a TopCount (PerkinElmer). Non-specific activity (NS cpm) and total radio activity (Total cpm) were determined by counting of pME-CHO plated wells and NaCT-CHO plated wells without compounds, respectively. Diffusion of [^14C]—CO2 was able to be estimated from residual radioactivity (R cpm) by an equation (Total−R)/(Total−NS)×100(%). The difference of Total and R was disappeared in the presence of 0.1 μM antimycin A. EC50 values were calculated by regression analysis using SAS Statistical Analysis System (SAS institute Japan Ltd. Release 9.1).
Compound `N#Cc1[nH]nnc1-c1cccc(CCc2ccc(F)cc2F)c1` [Example 40, 5-{3-[2-(2,4-difluoro-phenyl)-ethyl]-phenyl}-3H-[1,2,3]triazole-4-carbonitrile] yielded a half-maximal effective concentration (EC50) of 0.55 µM. With `N#Cc1[nH]nnc1-c1cccc(/C=C/c2cccc(C(F)(F)F)c2)c1Cl` [Example 42, 5-{2-chloro-3-[(E)-2-(3-trifluoromethyl-phenyl)-vinyl]-phenyl}-3H-[1,2,3]triazole-4-carbonitrile], the concentration giving a half-maximal response (EC50) was 0.59 µM. In turn, `CCOc1c(/C=C/c2cccc(C(F)(F)F)c2)cccc1-c1nn[nH]c1C#N` [Example 43, 5-{2-ethoxy-3-[(E)-2-(3-trifluoromethyl-phenyl)-vinyl]-phenyl}-3H-[1,2,3]triazole-4-carbonitrile] returned an EC50 of 0.67 µM.

Turning to `CCOc1ccc(/C=C/c2cccc(-c3nn[nH]c3C#N)c2)cc1` [Example 44, 5-{3-[(E)-2-(4-ethoxy-phenyl)-vinyl]-phenyl}-3H-[1,2,3]triazole-4-carbonitrile], it took 0.69 µM to reach a half-maximal effect (EC50).

Compound `N#Cc1ccc(-c2nn[nH]c2C#N)cc1/C=C/c1cccc(C(F)(F)F)c1` [Example 45, 5-{4-cyano-3-[(E)-2-(3-trifluoromethyl-phenyl)-vinyl]-phenyl}-3H-[1,2,3]triazole-4-carbonitrile] showed an EC50 of 0.91 µM. For the compound `N#Cc1[nH]nnc1-c1ccc(C(F)(F)F)c(/C=C/c2cccc(C(F)(F)F)c2)c1` [Example 46, 5-{4-trifluoromethyl-3-[(E)-2-(3-trifluoromethyl-phenyl)-vinyl]-phenyl}-3H-[1,2,3]triazole-4-carbonitrile], the concentration giving a half-maximal response (EC50) was 0.98 µM. As for `N#Cc1[nH]nnc1-c1cccc(/C=C/c2ccc(C(F)(F)F)cn2)c1` [Example 48, 5-{3-[(E)-2-(5-trifluoromethyl-pyridin-2-yl)-vinyl]-phenyl}-3H-[1,2,3]triazole-4-carbonitrile], the figure is 0.43 µM; as for `N#Cc1[nH]nnc1-c1cccc(/C=C\c2cc(C(F)(F)F)cc(C(F)(F)F)c2)c1` [Example 53, 5-{3-[(Z)-2-(3,5-bis-trifluoromethyl-phenyl)-vinyl]-phenyl}-3H-[1,2,3]triazole-4-carbonitrile], 0.48 µM; as for `CN(Cc1cccc(-c2nn[nH]c2C#N)c1)c1ccc(F)cc1` [Example 54, 5-(3-{[N-(4-fluoro-phenyl)-N-methyl-amino]-methyl}-phenyl)-3H-[1,2,3]triazole-4-carbonitrile], 0.43 µM.

The compound `N#Cc1[nH]nnc1-c1cccc(COc2ccc(C(F)(F)F)cn2)c1` [Example 56, 5-[3-(5-trifluoromethyl-pyridin-2-yloxymethyl)-phenyl]-3H-[1,2,3]triazole-4-carbonitrile] showed a half-maximal effective concentration (EC50) of 0.73 µM.

Consider `N#Cc1[nH]nnc1-c1cccc(COc2cc(C(F)(F)F)cc(C(F)(F)F)c2)c1` [Example 57, 5-[3-(3,5-bis-trifluoromethyl-phenoxymethyl)-phenyl]-3H-[1,2,3]triazole-4-carbonitrile], for which a half-maximal effect (EC50) was put at 0.48 µM. In turn, `CN(Cc1cc(C(F)(F)F)cc(C(F)(F)F)c1)c1cccc(-c2nn[nH]c2C#N)c1` [Example 58, 5-{3-[N-(3,5-bis-trifluoromethyl-benzyl)-N-methyl-amino]-phenyl}-3H-[1,2,3]triazole-4-carbonitrile] displayed a concentration giving a half-maximal response (EC50) of 0.72 µM. Next, `N#Cc1[nH]nnc1-c1cccc(OCc2cc3ccccc3o2)c1` [Example 59, 5-[3-(benzofuran-2-ylmethoxy)-phenyl]-3H-[1,2,3]triazole-4-carbonitrile]: 0.5 µM; `COc1ccccc1COc1cc(-c2nn[nH]c2C#N)cc(C(F)(F)F)c1` [Example 61, 5-[3-(2-methoxy-benzyloxy)-5-trifluoromethyl-phenyl]-3H-[1,2,3]triazole-4-carbonitrile]: 0.44 µM; `COc1cc(OCc2cc(C(F)(F)F)ccc2C(F)(F)F)cc(-c2nn[nH]c2C#N)c1` [Example 62, 5-[3-(2,5-bis-trifluoromethyl-benzyloxy)-5-methoxy-phenyl]-3H-[1,2,3]triazole-4-carbonitrile]: 0.6 µM.

The compound `N#Cc1[nH]nnc1-c1cc(OCc2cc(C(F)(F)F)ccc2C(F)(F)F)cc(C(F)(F)F)c1` [Example 63, 5-[3-(2,5-bis-trifluoromethyl-benzyloxy)-5-trifluoromethyl-phenyl]-3H-[1,2,3]triazole-4-carbonitrile] had a half-maximal effective concentration (EC50) of 0.96 µM.

Regarding `CC(Oc1cc(-c2nn[nH]c2C#N)cc(C(F)(F)F)c1)c1ccccc1` (stereo not shown) [Example 64, 5-[3-(1-phenyl-ethoxy)-5-trifluoromethyl-phenyl]-3H-[1,2,3]triazole-4-carbonitrile], the midpoint of the response, the EC50, lay at 0.24 µM.

With `N#Cc1[nH]nnc1-c1cccc(CSCc2ccc(OC(F)(F)F)cc2)c1` [Example 65, 5-[3-(4-trifluoromethoxy-benzylsulfanylmethyl)-phenyl]-3H-[1,2,3]triazole-4-carbonitrile], the EC50 is 0.79 µM. As for `N#Cc1[nH]nnc1-c1cccc(CCOc2ccc(C(F)(F)F)cn2)c1` [Example 66, 5-{3-[2-(5-trifluoromethyl-pyridin-2-yloxy)-ethyl]-phenyl}-3H-[1,2,3]triazole-4-carbonitrile], the figure is 0.66 µM. As for `CC(Cc1ccccc1)Oc1cc(-c2nn[nH]c2C#N)cc(C(F)(F)F)c1` (stereo not shown) [Example 67, 5-[3-(1-methyl-2-phenyl-ethoxy)-5-trifluoromethyl-phenyl]-3H-[1,2,3]triazole-4-carbonitrile], the figure is 0.49 µM. As for `N#Cc1[nH]nnc1-c1ccc(-c2cccc(C(F)(F)F)c2)cc1` [Example 68, 5-(3′-trifluoromethyl-biphenyl-4-yl)-3H-[1,2,3]triazole-4-carbonitrile], the figure is 0.46 µM; as for `N#Cc1[nH]nnc1-c1ccc(-c2cc(C(F)(F)F)ccn2)cc1` [Example 69, 5-[4-(4-trifluoromethyl-pyridin-2-yl)-phenyl]-3H-[1,2,3]triazole-4-carbonitrile], 0.53 µM.

Consider `Cc1cc(-c2nn[nH]c2C#N)ccc1Cc1cccc(C(F)(F)F)c1` [Example 71, 5-[3-methyl-4-(3-trifluoromethyl-benzyl)-phenyl]-3H-[1,2,3]triazole-4-carbonitrile], for which it took 0.59 µM to reach a half-maximal effect (EC50). As for `N#Cc1[nH]nnc1-c1ccc(Oc2cccc(C(F)(F)F)c2)c(F)c1` [Example 72, 5-[3-fluoro-4-(3-trifluoromethyl-phenoxy)-phenyl]-3H-[1,2,3]triazole-4-carbonitrile], the figure is 0.3 µM; as for `N#Cc1[nH]nnc1-c1ccc(/C=C/c2cccc(C(F)(F)F)c2)cc1F` [Example 73, 5-{2-fluoro-4-[(E)-2-(3-trifluoromethyl-phenyl)-vinyl]-phenyl}-3H-[1,2,3]triazole-4-carbonitrile], 0.73 µM; as for `N#Cc1[nH]nnc1-c1nc(-c2ccc(OC(F)(F)F)cc2)cs1` [Example 74, 5-[4-(4-trifluoromethoxy-phenyl)-thiazol-2-yl]-3H-[1,2,3]triazole-4-carbonitrile], 2.91 µM.

In turn, `N#Cc1[nH]nnc1-c1csc(-c2ccc(F)c(Cl)c2)n1` [Example 76, 5-[2-(3-chloro-4-fluoro-phenyl)-thiazol-4-yl]-3H-[1,2,3]triazole-4-carbonitrile] registered a concentration for a half-maximal effect (EC50) of 0.59 µM. Take `N#Cc1[nH]nnc1-c1csc(-c2ccc(OC(F)(F)F)cc2)n1` [Example 80, 5-[2-(4-trifluoromethoxy-phenyl)-thiazol-4-yl]-3H-[1,2,3]triazole-4-carbonitrile]: the EC50 was determined as 0.87 µM. The compound `N#Cc1[nH]nnc1-c1csc(/C=C/c2cccc(C(F)(F)F)c2)n1` [Example 81, 5-{2-[(E)-2-(3-trifluoromethyl-phenyl)-vinyl]-thiazol-4-yl}-3H-[1,2,3]triazole-4-carbonitrile] registered an EC50 of 0.99 µM. Next, `N#Cc1[nH]nnc1-c1csc(OCc2ccc(Cl)cc2)n1` [Example 82, 5-[2-(4-chloro-benzyloxy)-thiazol-4-yl]-3H-[1,2,3]triazole-4-carbonitrile]: 0.76 µM. Next, `CN(c1ccc(Cl)cc1)c1nc(-c2nn[nH]c2C#N)cs1` [Example 83, 5-{2-[N-(4-chloro-phenyl)-N-methyl-amino]-thiazol-4-yl}-3H-[1,2,3]triazole-4-carbonitrile]: 1.08 µM.
